What is called melting point is the temperature of the solid-liquid transition. `CC(=O)c1cc2c(Br)ccc(OC(C)c3ccccc3)c2o1` (stereo not drawn): the melting point was in the range of 129 to 132 °C.
As for `COc1cc(Nc2nccc(-c3cccc(NC(C)=O)c3)n2)cc(OC)c1OC`, the figure is 162 to 164 °C; as for `CCOC=C1C(=S)c2cc(C)ccc2OC1c1ccccc1` (stereo not drawn), 140 to 142 °C; as for `CCOC(=O)C=Cc1ccc(N2CCCC2=O)cc1`, 134 °C.
As for `CCOC(=O)c1cccn2cc(C(OCC)OCC)nc12`, the figure is 98 to 100 °C; as for `CCOP(=O)(O)Cc1nc2nc[nH]c2c2nc(-c3ccc(C(C)(C)C)cc3)nn12`, 254 to 256 °C.
As for `CCCCOc1cc(OCCCC)c(C(=O)O)c(C(F)(F)F)n1`, the figure is 90 to 93.5 °C; as for `CC(=O)c1ccc(C(F)(F)C(F)(F)c2ccccc2)cc1`, 128 to 133 °C; as for `O=C(O)C1c2cc(Br)ccc2COc2ccc(Br)cc21` (stereo not drawn), 179 to 182 °C.
The compound `CC(=O)SCCC(=O)[C@H]1CC[C@H]1C(=O)O` (relative stereo) showed a melting point of 50 to 54 °C.
As for `COCCOCC(=O)Nc1cccc2c1C1(COc3cc4c(cc31)OCCO4)C(=O)N2C` (stereo not drawn), the melting point is 122 to 123 °C.
For `CC(=O)N[C@@H](C)COc1ccc2nc(-c3ccc(OCC4CC4)c(Cl)c3)oc2c1` the value was 156 to 159 °C; for `O=Cc1ccccc1-c1noc2ccccc12`, 149 °C; for `Cc1ccccc1C(O)c1nnn[nH]1` (racemic), 124 to 126 °C.
For `CCOC(=O)c1c(C(C)C)nc(C(C)C)c(C(=O)OCC)c1-c1ccc(OCc2ccccc2)cc1` the value was 87 °C; for `O=[N+]([O-])c1cn2c(n1)O[C@@H](COc1ccc(N3CCN(S(=O)(=O)C(F)(F)C(F)(F)C(F)(F)C(F)(F)F)CC3)cc1)CC2`, 235 to 236 °C; for `COc1ccc2c(Cc3c(Cl)cncc3Cl)nnc(N3CCCC3)c2c1`, 170 to 172 °C.
For `COC(=O)c1ccc(Cl)c(C2(O)C(=O)N(Cc3ccc(OC)cc3OC)c3ccccc32)c1` (stereo not drawn) the value was 172 °C; for `FC(F)(F)Oc1ccc(Nc2cc(N3CCOCC3)nc(-c3ccccc3)n2)cc1`, 144 to 146 °C.
`COc1cccc(C2CCCCN(Cc3ccccc3)C2=O)c1` (stereo not drawn) gave a melting point of 120 to 122 °C.
In the case of `CC12CCC3C4CCC(=O)C=C4CCC3C1CCC2C(F)F` (stereo not drawn), the melting point lay within 102 to 103 °C.
For `COc1ccc(CSc2nnc(-c3ccc4ncsc4c3)o2)cc1` the value was 134 to 135 °C; for `COc1cc(Nc2nc3ccnc(-c4cccc(N)c4)c3o2)cc(OC)c1OC`, 120 to 126 °C; for `CCCCCCc1csc2c(CCCCCC)csc12`, 57.5 to 59.1 °C.
`COc1cc2c(cc1OC)-c1c(C(=O)c3ccccc3)c(-c3cc(C)c(O)c(C)c3)c(C)n1CC2` registered a melting point of 194 to 196 °C.
As for `COC(=O)C(=Cc1ccccc1Cl)c1ccccc1`, the figure is 67 to 69 °C; as for `CN(C)C=NS(=O)(=O)c1cc2cnc(CO)cc2o1`, 161 to 163 °C; as for `Cc1ccc(Nc2nc(Cl)nc3ccccc23)cc1`, 198 to 199 °C.
For `COC1=C(OC)C(=O)C2=C(CCC(CCOc3ccc4c(c3)OCO4)CC2)C1=O`, the melting point lay within 75 to 78 °C.
`NNc1cc2c(nn1)CCN(C(=O)CC(c1ccccc1)c1ccccc1)C2` displayed a melting point of 175 to 178 °C.
For `O=C(CCCN1CC=C(c2ccccc2)CC1)c1cccnc1` the value was 64 to 66 °C; for `O=C(Nc1ccc2ccc(Cl)nc2n1)c1ccccc1`, 198 °C.
As for `COC(=O)ON=C1C(=O)c2ccccc2-c2ccccc21`, the figure is 142 to 143 °C.
`COC(=O)c1c(-c2ccc(F)cc2)c2c3ccccc3ccn2c1C(C)C`: the melting point was in the range of 170 to 173 °C.
As for `Cc1nc(-c2c(Cl)cc(C(F)(F)F)cc2Cl)[nH]c1S(=O)(=O)Cl`, the figure is 227 to 230 °C; as for `CC(C)(C)OC(=O)CN(C(=O)CNC(=O)c1cc2ccccc2[nH]1)c1ccccc1`, 203 °C; as for `COC(=O)c1ccc(C=O)s1`, 79 °C.
For `Cc1ccc(C(=O)C(=NN)c2ccc(C)cc2)cc1` the value was 137 to 140 °C.
As for `COc1cc(Br)c(N)c(C(=O)/C=C/c2ccc(OC)c(F)c2)c1`, the figure is 123 to 125 °C; as for `CC(=O)NCCNc1nc(-c2ccc(=O)n(C(C)C)n2)c(-c2ccccc2)nc1N`, 147 to 149 °C; as for `CC(C)C[C@H](NC(=O)c1ccc2c(c1)Nc1ccccc1S2)C(=O)N[C@H]1CCOC1OC(=O)N1CCOCC1` (stereo partly drawn), 165 to 167 °C.
`COc1ccc(C=NNC(=O)COc2ccc(C3=NNC(=O)CC3)cc2Cl)cc1` displayed a melting point of 220 to 222 °C.
As for `C=CCOC(=O)c1cccc(NC(=O)NCC(=O)Nc2ccccc2C(=O)c2ccc(OC)cc2)c1`, the figure is 167 to 169 °C; as for `Cc1c(NCC2CCCCO2)cc2oc(=O)[nH]c2c1F` (stereo not drawn), 166 °C.
For `CCC(C)C1C(=O)NC(=S)N1C(C)=O` (stereo not drawn) the value was 132 to 133 °C.
Compound `COc1cc(OC)c(C(O)=S)cc1C` registered a melting point of 151 to 153 °C.
As for `CC(=O)Nc1ccc(S(=O)(=O)Nc2nnc(CC(=O)O)s2)cc1`, the figure is 206 to 207 °C; as for `COc1ccc(C2=NN(C3CCN(S(=O)(=O)c4ccccc4OC(F)(F)F)CC3)C(=O)C(C)(C)C2)cc1OC`, 143 to 144 °C; as for `CNC(=O)N1CC(C)(C)N(C)C(C)(C)CC1=O`, 111 to 113 °C.
As for `CC(=O)N1CCC(C)(C)C(=O)c2ccc(Cl)cc2CCC1=O`, the figure is 113 to 115 °C; as for `Cc1c(C=O)c2c(c(C)c1NC(=O)NC(C)(C)C)C(c1ccc(C(C)C)cc1)CO2` (single isomer, unassigned; (-)), 209 to 210 °C.
As for `c1ccc(N2CCN(Cc3c[nH]c4ncccc34)CC2)cc1`, the figure is 207 to 209 °C; as for `CN(C)C(=O)Nc1ccc(OCCCC(=O)c2ccccc2)c(Cl)c1`, 129 to 130 °C.
Turning to `COCCOc1ccc2c(C(C[N+](=O)[O-])c3cccc(NC(=O)OCc4ccccc4)c3C)c[nH]c2c1` (stereo not drawn), the melting point was determined as 125 °C.
As for `Cc1nnc(-c2ncn3c2[C@@H]2CCCN2C(=O)c2c(Cl)cccc2-3)o1`, the figure is 253 to 254 °C; as for `CN(CCC(=O)O)C(=O)N(c1ccc(Cl)cc1)C(C)(C)C`, 90 to 95 °C.
Compound `COC(=O)c1nn(-c2ccccc2)c(=O)c2c1c1cc(Cl)ccc1n2C` gave a melting point of 265 to 266 °C.
For `O=C(c1cccs1)c1cnn2c(-c3cccc(-c4nnn(CCO)n4)c3)ccnc12` the value was 134 °C; for `COC1(c2cc(F)cc(Oc3nc(-c4ccccc4)c(-c4ccc(S(N)(=O)=O)cc4)o3)c2)CCOCC1`, 159 to 161 °C.
Consider `CC(C(=O)O)c1ccc(-n2cc(Br)cn2)c(Cl)c1` (stereo not drawn), for which the melting point was 116 to 117 °C.
On to `NC(=O)N(O)CC#Cc1cccc(C2=N[C@H](c3ccc(F)cc3)CO2)c1`, for which the melting point was found to be 181 °C.
In turn, `CC(C)CN(CC(C)C)S(=O)(=O)N[C@@H](Cc1ccc(NC(=O)c2c(Cl)cncc2Cl)cc1)C(=O)O` yielded a melting point of 209 °C.
For `NC(=O)c1cccc(OCc2cccc(Br)c2)c1` the value was 129 to 131 °C.
